According to patent US20030018044A1, “Treatment of ocular disease” (priority 2000, published 2003):

Legend:
atopic dermatitis = details: topical, cited from earlier work
human skin mast cells = details: cited from earlier work
[1] = cited from earlier work
eye = assay: ocular toxicity after direct intraocular injection; format: in vivo, patient
Description: The toxicity of tacrolimus, which had been reported with tacrolimus administered systemically, was thought to limit its intraocular use. The toxicity of tacrolimus administered intraocularly had not been evaluated. Ocular toxicity may manifest as a gross and/or histologic retinal and/orvitreous toxic reaction. Evidence of such a toxic reaction may include one or more of white vitreous bodies, white vitreous opacities, electroretinography abnormalities such as reduction in mean B-wave amplitude in both scotopic and photopic conditions, occlusion of the temporal retinal vessels, and fibrin deposits.
As used herein, a lack of substantial toxicity encompasses both the absence of any manifestations of toxicity, as well as manifestations of toxicity which one skilled in the art would consider not sufficiently detrimental to decrease or cease treatment.
The intravenous solution form of tacrolimus may be diluted to achieve the indicated concentration using 0.9% NaCl or 5% dextrose, or an organic solvent such as dimethylsulfoxide (DMSO) or alcohol, preferably a low molecular weight alcohol. Intraocular administration may be any of the routes and formulations previously described. For injection, either a solution, emulsion, suspension of a liquid, capsular formulation of microspheres or liposomes, etc. may be used.

Question: With `C=CC[C@@H]1/C=C(\C)C[C@H](C)C[C@H](OC)[C@H]2O[C@@](O)(C(=O)C(=O)N3CCCC[C@H]3C(=O)O[C@H](/C(C)=C/[C@@H]3CC[C@@H](O)[C@H](OC)C3)[C@H](C)[C@@H](O)CC1=O)[C@H](C)C[C@@H]2OC` [Tacrolimus] as the molecule, how does the “adverse effects, treated versus control groups” value (atopic dermatitis; concentrations up to 0.3%) read?
Answer: no significant difference

Question: And the “clinical improvement in atopic dermatitis” value (atopic dermatitis; doses 0.03%-0.3%, after 2-3 weeks treatment)?
Answer: significant clinical improvement

Question: And the local tolerability (atopic dermatitis)?
Answer: well tolerated locally and only occasionally causes mild irritation

Question: What about the anti-IgE-triggered histamine release (human skin mast cells) of the same molecule?
Answer: inhibits

Question: And the “prostaglandin D2 synthesis” value (human skin mast cells)?
Answer: inhibits

Question: What about the solubility in chloroform ([1]; chloroform) of the same molecule?
Answer: very soluble

Question: And the solubility in ethanol ([1]; ethanol)?
Answer: freely soluble

Question: And the solubility in methanol ([1]; methanol)?
Answer: very soluble

Question: And the solubility in water ([1]; water)?
Answer: practically insoluble

Question: What about the “dose of direct intraocular injection without substantial toxicity” value (eye) of the same molecule?
Answer: up to 250 μg
